The compounds below were run against T1, human mGlu7 (Homo sapiens, UniProt Q14831) (assay: Fluorescent cell based Ca2+ mobilization assay (FLIPR) on HEK-293 cells expressing human mGlu7). Conditions: HEK-293 cells expressing hmGlu7; inhibition of EC80 L-AP4 response; mean of at least three independent experiments in duplicate; read-out: Ca^2+ Flux (mean IC50).
T1 construct: expressed in transfected cells
T1 sequence (Q14831 35-922 isoform Q14831-2 limits assumed): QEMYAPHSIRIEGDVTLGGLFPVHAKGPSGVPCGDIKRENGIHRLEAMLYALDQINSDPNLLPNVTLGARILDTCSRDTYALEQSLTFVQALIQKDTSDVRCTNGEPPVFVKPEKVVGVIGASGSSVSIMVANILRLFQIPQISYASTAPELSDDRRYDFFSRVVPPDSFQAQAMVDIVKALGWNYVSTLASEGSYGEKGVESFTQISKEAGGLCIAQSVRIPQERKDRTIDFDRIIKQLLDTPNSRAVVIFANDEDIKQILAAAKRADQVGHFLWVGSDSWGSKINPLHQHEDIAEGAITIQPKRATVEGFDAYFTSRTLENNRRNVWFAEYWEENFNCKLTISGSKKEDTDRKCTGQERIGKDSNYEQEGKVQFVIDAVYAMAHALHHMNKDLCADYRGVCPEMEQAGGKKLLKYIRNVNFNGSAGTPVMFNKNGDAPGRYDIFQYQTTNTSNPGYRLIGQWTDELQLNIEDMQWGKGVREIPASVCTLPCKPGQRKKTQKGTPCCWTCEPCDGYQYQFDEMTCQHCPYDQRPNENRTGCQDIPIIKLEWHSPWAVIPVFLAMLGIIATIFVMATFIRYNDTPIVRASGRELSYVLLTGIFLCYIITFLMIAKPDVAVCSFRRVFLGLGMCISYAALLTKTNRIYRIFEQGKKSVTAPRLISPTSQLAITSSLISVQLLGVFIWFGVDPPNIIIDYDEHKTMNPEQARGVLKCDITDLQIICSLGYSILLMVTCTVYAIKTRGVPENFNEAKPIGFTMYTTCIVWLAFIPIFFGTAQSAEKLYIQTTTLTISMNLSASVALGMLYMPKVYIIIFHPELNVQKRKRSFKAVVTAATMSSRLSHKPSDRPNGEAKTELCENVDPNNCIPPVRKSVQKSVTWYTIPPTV
Description: mGlu7 Assay on HEK-Expressing Human mGlu7
The cDNA encoding the human metabotropic glutamate 7 receptor (hmGlu7), (accession number NM_181874.2, NCBI Nucleotide database browser), was subcloned into an expression vector containing also the hygromycin resistance gene. In parallel, the cDNA encoding a G protein allowing redirection of the activation signal to intracellular calcium flux was subcloned into a different expression vector containing also the Puromycin resistance gene. Transfection of both these vectors into HEK293 cells with PolyFect reagent (Qiagen) according to supplier's protocol, and hygromycin and puromycin treatment allowed selection of antibiotic resistant cells which had integrated stably one or more copies of the plasmids. Positive cellular clones expressing hmGlu7 were identified in a functional assay measuring changes in calcium fluxes in response to glutamate and L-AP4 or known mGlu7 orthosteric antagonists.
HEK-293 cells expressing hmGlu7 were maintained in media containing DMEM, Fetal Bovine Serum (10%), Glutamax™ (2 mM), penicillin (100 units/mL), streptomycin (100 μg/mL), geneticin (100 μg/mL) and hygromycin-B (40 μg/mL) and puromycin (1 μg/mL) at 37° C. with 5% CO2 in a humidified atmosphere.
Human mGlu7 HEK-293 cells were plated out 24 hours prior to a fluorescent cell-based calcium mobilization assay using FLIPR^384 assay (Molecular Device, Sunnyvale, CA, USA) in black-walled, clear-bottomed, poly-L-ornithine-coated 384-well plates at a density of 25,000 cells/well in a glutamine/glutamate free DMEM medium containing fetal bovine serum (10%), penicillin (100 units/mL), streptomycin (100 μg/mL) and doxycyline (1 μg/ml) at 37° C. with 5% CO2 in a humidified atmosphere.
On the day of the assay, the medium was aspirated and the cells were loaded with a 3 μM solution of Fluo4-AM (LuBioScience, Lucerne, Switzerland) in 0.03% pluronic acid. After 1 hour at 37° C./5% CO2, the non incorporated dye was removed by washing cell plate with the assay buffer. All assays were performed in a pH 7.4 buffered-solution containing 20 mM HEPES, 143 mM NaCl, 6 mM KCl, 1 mM MgSO4, 1 mM CaCl2, 0.125 mM sulfinpyrazone and 0.1% glucose.
After 10 s of basal fluorescence recording, various concentrations of the compounds of the invention were added to the cells. Changes in fluorescence levels were first monitored for 180 s in order to detect any agonist activity of the compounds. Then the cells were stimulated by an EC80 L-AP4 concentration for an additional 110 s in order to measure inhibiting activities of the compounds of the invention. EC80 L-AP4 concentration is the concentration giving 80% of the maximal glutamate response.
The concentration-response curves of L-AP4 or representative compounds of the present invention were generated using the Prism GraphPad software (Graph Pad Inc, San Diego, USA). The curves were fitted to a four-parameter logistic equation:
(Y=Bottom+(Top−Bottom)/(1+10^((Log IC50−X)*Hill Slope)
allowing determination of IC50 values.
The Table 3 below represents the mean IC50 obtained from at least three independent experiments of selected molecules performed in duplicate.
Work on O=c1n(-c2ccccn2)nc2ccc(-c3cccc(N4CCC4)c3)cn12 [Compound 1-4, 6-(3-(azetidin-1-yl)phenyl)-2-(pyridin-2-yl)-[1,2,4]triazolo[4,3-a]pyridin-3(2H)-one] yielded an IC50 of 0.1 to 1 µM.
Work on COc1ccc(C2CCc3nn(-c4ccccn4)c(=O)n3C2)cc1 (stereo not shown) [Compound 1-16, 6-(4-methoxyphenyl)-2-(pyridin-2-yl)-5,6,7,8-tetrahydro-[1,2,4]triazolo[4,3-a]pyridin-3(2H)-one] yielded an IC50 of 1 to 10 µM.
COc1cccc(-c2ccc3nn(-c4ncccn4)c(=O)n3c2)c1 [Compound 1-7, 6-(3-methoxyphenyl)-2-(pyrimidin-2-yl)-[1,2,4]triazolo[4,3-a]pyridin-3(2H)-one] was tested, and the IC50 was 1 to 10 µM.
Compound O=c1n(-c2ncccn2)nc2ccc(-c3cccc(N4CCC4)c3)cn12 [Compound 1-6, 6-(3-(azetidin-1-yl)phenyl)-2-(pyrimidin-2-yl)-[1,2,4]triazolo[4,3-a]pyridin-3(2H)-one] has an IC50 of 0.1 to 1 µM.
In the case of Cc1ccc(C2CCc3nn(-c4ccccn4)c(=O)n3C2)c(C)c1 (stereo not shown) [Compound 1-3, 6-(2,4-dimethylphenyl)-2-(pyridin-2-yl)-5,6,7,8-tetrahydro-[1,2,4]triazolo[4,3-a]pyridin-3(2H)-one], the IC50 is reported as < 0.1 µM.
O=c1n(-c2ccccn2)nc2ccc(-c3cccc(OC4CC4)c3)cn12 [Compound 1-13, 6-(3-cyclopropoxyphenyl)-2-(pyridin-2-yl)-[1,2,4]triazolo[4,3-a]pyridin-3(2H)-one] was tested, and the IC50 was 0.1 to 1 µM.
With Cc1ccc(C2CCc3nn(-c4ccccn4)c(=O)n3C2)c(C)c1 (single isomer, unassigned; (-)) [Compound 1-17, (−)6-(2,4-dimethylphenyl)-2-(pyridin-2-yl)-5,6,7,8-tetrahydro-[1,2,4]triazolo[4,3-a]pyridin-3(2H)-one] the IC50 was 1 to 10 µM.
Compound COc1cccc(C2CCc3nn(-c4ccccn4)c(=O)n3C2)c1C (stereo not shown) [Compound 1-10, 6-(3-methoxy-2-methylphenyl)-2-(pyridin-2-yl)-5,6,7,8-tetrahydro-[1,2,4]triazolo[4,3-a]pyridin-3(2H)-one] has an IC50 of 0.1 to 1 µM.
Compound COc1cccc(-c2ccc3nn(-c4ncccn4)c(=O)n3c2)c1C [Compound 1-11, 6-(3-methoxy-2-methylphenyl)-2-(pyrimidin-2-yl)-[1,2,4]triazolo[4,3-a]pyridin-3(2H)-one] has an IC50 of 0.1 to 1 µM.
In the case of COc1ccc(-c2ccc3nn(-c4ncccn4)c(=O)n3c2)c(C)c1 [Compound 1-21, 6-(4-methoxy-2-methylphenyl)-2-(pyrimidin-2-yl)-[1,2,4]triazolo[4,3-a]pyridin-3(2H)-one], the IC50 is reported as 1 to 10 µM.
Compound COc1cccc(-c2ccc3nn(-c4ccccn4)c(=O)n3c2)c1 [Compound 1-5, 6-(3-methoxyphenyl)-2-(pyridin-2-yl)-[1,2,4]triazolo[4,3-a]pyridin-3(2H)-one] has an IC50 of 0.1 to 1 µM.
In the case of O=c1n(-c2ccccn2)nc2n1CC(c1cccc(OC3CC3)c1)CC2 (stereo not shown) [Compound 1-14, 6-(3-cyclopropoxyphenyl)-2-(pyridin-2-yl)-5,6,7,8-tetrahydro-[1,2,4]triazolo[4,3-a]pyridin-3(2H)-one], the IC50 is reported as 0.1 to 1 µM.
With Cc1ccc(-c2ccc3nn(-c4ccccn4)c(=O)n3c2)c(C)c1 [Compound 1-1, 6-(2,4-dimethylphenyl)-2-(pyridin-2-yl)-[1,2,4]triazolo[4,3-a]pyridin-3(2H)-one] the IC50 was < 0.1 µM.
In the case of O=c1n(-c2ncccn2)nc2ccc(-c3cccc(OC4CC4)c3)cn12 [Compound 1-12, 6-(3-cyclopropoxyphenyl)-2-(pyrimidin-2-yl)-[1,2,4]triazolo[4,3-a]pyridin-3(2H)-one], the IC50 is reported as 0.1 to 1 µM.
With COc1cccc(-c2ccc3nn(-c4ccccn4)c(=O)n3c2)c1C [Compound 1-9, 6-(3-methoxy-2-methylphenyl)-2-(pyridin-2-yl)-[1,2,4]triazolo[4,3-a]pyridin-3(2H)-one] the IC50 was < 0.1 µM.
Compound COc1ccc(C2CCc3nn(-c4ccccn4)c(=O)n3C2)c(C)c1 (stereo not shown) [Compound 1-22, 6-(4-methoxy-2-methylphenyl)-2-(pyridin-2-yl)-5,6,7,8-tetrahydro-[1,2,4]triazolo[4,3-a]pyridin-3(2H)-one] has an IC50 of 0.1 to 1 µM.
In the case of Cc1ccc(-c2ccc3nn(-c4ncccn4)c(=O)n3c2)c(C)c1 [Compound 1-2, 6-(2,4-dimethylphenyl)-2-(pyrimidin-2-yl)-[1,2,4]triazolo[4,3-a]pyridin-3(2H)-one], the IC50 is reported as 0.1 to 1 µM.
COc1ccccc1-c1ccc2nn(-c3ccccn3)c(=O)n2c1 [Compound 1-19, 6-(2-methoxyphenyl)-2-(pyridin-2-yl)-[1,2,4]triazolo[4,3-a]pyridin-3(2H)-one] showed an IC50 of 1 to 10 µM.
In the case of COc1cccc(C2CCc3nn(-c4ccccn4)c(=O)n3C2)c1 (stereo not shown) [Compound 1-8, 6-(3-methoxyphenyl)-2-(pyridin-2-yl)-5,6,7,8-tetrahydro-[1,2,4]triazolo[4,3-a]pyridin-3(2H)-one], the IC50 is reported as 1 to 10 µM.
For COc1ccc(-c2ccc3nn(-c4ccccn4)c(=O)n3c2)cc1 [Compound 1-15, 6-(4-methoxyphenyl)-2-(pyridin-2-yl)-[1,2,4]triazolo[4,3-a]pyridin-3(2H)-one], the IC50 was 1 to 10 µM.
Cc1ccc(C2CCc3nn(-c4ccccn4)c(=O)n3C2)c(C)c1 (single isomer, unassigned; (+)) [Compound 1-18, (+)6-(2,4-dimethylphenyl)-2-(pyridin-2-yl)-5,6,7,8-tetrahydro-[1,2,4]triazolo[4,3-a]pyridin-3(2H)-one] was tested, and the IC50 was < 0.1 µM.
In the case of COc1ccc(-c2ccc3nn(-c4ccccn4)c(=O)n3c2)c(C)c1 [Compound 1-20, 6-(4-methoxy-2-methylphenyl)-2-(pyridin-2-yl)-[1,2,4]triazolo[4,3-a]pyridin-3(2H)-one], the IC50 is reported as 0.1 to 1 µM.

Reference: patent US20260200911A1, “NOVEL COMPOUNDS” (Neurosterix Pharma Sarl., priority 2022, published 2026)
